Measured values reported in patent US20090263410A1, “USE OF TGF-B1 INHIBITOR PEPTIDES IN THE PREPARATION OF AN IMMUNE RESPONSE MODULATING AGENT” (Proyecto De Biomedicina Cima, S.L., priority 2005, published 2009).
“Also recorded” adds a separate entry of the source. Where no end group is shown, it is not given here.

Legend:
[1] = tested on: regulatory T lymphocytes (CD25+); assay: Inhibition of suppressant action of regulatory T lymphocytes (CD25+) on splenocyte proliferation; type: cell-based, Balb-c mice; details: for dose dependence of inhibition of regulatory T lymphocyte action: 50 μM and double dilutions
Method: 1. OBTAINMENT OF TOTAL SPLENOCYTES: To obtain splenocytes from 6-week old, female Balb-c mice, 4 animals were sacrificed, and after extracting the spleen, they were transferred to a clean medium for their dispersion with crystals, the homogenate was filtered (70-micron filter) and transferred to 50-ml tubes, for their subsequent washing and centrifugation. The cells obtained were incubated for 1 minute in lysis buffer, for the elimination of erythrocytes and they were subsequently washed with clean culture medium. Finally, the cells obtained were resuspended in 1 ml of AUTOMACS medium and they were counted. 2. PURIFICATION OF CD25+ LYMPHOCYTES: the purification of CD25+ lymphocytes was performed by the use of magnetic columns labelling with CD25PE and after incubation, anti-PE magnetic microspheres (Phycoerythrin) were added. After incubation, washing and filtration (30-micron filter) the samples were passed through a magnetic column, obtaining the eluate containing the CD25− population by gravity. Once the column is extracted from the magnetic field it is washed under pressure, obtaining the CD25+ cells. 3. SUPPRESSANT ACTIVITY ASSAY: To verify the regulating nature of the CD25+ population, a total of 100,000 splenocytes was seeded per well on a U-bottomed 96-well plate, in a volume of 200 μl per well and anti-CD3 antibody ([…]) alone or opposing CD25+ or CD25−, placing 25,000 cells per well (CD25+) or 50,000 cells per well (CD25−), performing double dilutions of the concentration of these cells. 4. ASSAY FOR THE INHIBITION OF SUPPRESSANT ACTION BY PEPTIDES: On the U-bottomed 96-well plate, with 200 μl vol/well, 100,000 splenocytes were seeded per well and anti-CD3 antibody (0.5 μl/well) plus 25,000 CD25+ lymphocytes per well. Peptides were added to these mixtures (3 columns/peptide, 50 MicroM in the 1st row and double dilution in the following three rows). 3 peptides were assayed: P17(1-11) SEQ ID NO: 3, P17(1-11)am SEQ ID NO: 4 and AcP17(1-11)am SEQ ID NO: 5. Both this assay and that of the suppressant activity were incubated at 37° C. for 48 h, tritium labelled thymidine was added at 0.5 μCi/well and it is harvested after 8 h, subsequently counting the CPM emitted by the cells from each well. 5. VERIFICATION OF THE EFFECTIVE SEPARATION OF THE Treg: Labelling with fluorescent anti-CD4 and anti-CD25 antibodies and analysis by flow cytometry (89% of the population magnetically separated is DC4+CD25+).

[2] = tested on: MC38, LLC, CT26 and RENCA tumour lines; assay: NK cell cytotoxicity, 51Cr release assay; type: cell-based, mouse; details: effector cells with/without p17 for 6 days; 4.5 h 51Cr release
Method: They were performed from spleen cells from RAG^−/− mice, without T and B lymphocytes. In some cases, the total splenocytes was cultured on 6-well plates at 4×10^6 cells per ml of RPMI medium enriched with 10% SBF, L-glutamine, antibiotics, non-essential amino acids, β-mercaptoethanol and human recombinant interleukin-2 (Chiron) at 600 IU/ml. In half the wells, peptide p17 was added at a concentration of 150 μg/ml. After 48 hours, the medium was removed and the wells were washed with RPMI medium to discard the non-adherent cells. Next, fresh medium was added with/without peptide. On day +5, the medium was again changed, this time replacing all the cells and peptide p17 in the corresponding cultures. The cells counts with trypan blue were performed on days +5 and +6 of this culture. In other cases, NK cells from mouse splenocytes were purified by an immunomagnetic selection using the MiniMACS system, anti-DX5 beads and MS columns (Miltenyi Biotech) according to the manufacturer's instructions. […]
The cytotoxicity of NK cells was verified by standard 4.5 h ^51Cr release assays. […] Finally, the release of ^51Cr due to lysis by NK cells was measured after 4.5 h in a TopCount Scintillation counter (Perkin Elmer). The cytotoxicity was measured as a percentage of Cr released with respect to the total acquired by the cells. […]

[3] = tested on: CT26 cells; assay: Tumour growth of subcutaneous CT26 in AH1-immunized mice treated with peptides; type: in vivo, balb-c mice; details: 50 μg/mouse/48 h i.p. between days 6 and 10, s.c. CT26 on day 0, AH1 immunization 10 days before
Method: GROUPS: 4 groups of 7 female balb-c mice, of 6 weeks old/group.
AH1+FIA s.c.+p144 (50 μg i.p./dose/mouse) AH1+FIA s.c.+p17(1-11) (50 μg i.p./dose/mouse) DESIGN: AH1+FIA: […]; Peptides: from day −6 on alternate days until day 10: Tumour model volume: Each 3 days from day 10 to day 41. Challenge on day 0 with CT26 (500000 cells/mouse s.c. in the flank).
REDUCTION IN THE MEAN TUMOUR VOLUME BY GROUPS TREATED WITH PEPTIDES: The effect of peptides p144 and p17(1-11)Am was studied in a tumour progression model. In this model, mice were immunized with 50 μg of AH1 10 days before the administration of 5×10^5 CT26 cells. In order to verify the effect of blocking the TGF-β1 on the protection against CT tumour cells, another two groups of mice were treated on alternate days by intraperitoneal route between days 6 and 10 (50 μg/mouse/48 h) with peptides p144 and p17(1-11)Am. […] This protection reached 100% of the animals in the case of p144 (FIG. 16).

p17(1-11): fragment of peptide p17, amino acids 1 to 11, SEQ ID NO: 3 (KRIWFIPRSSW)
inhibition of the suppressant effect of regulatory T lymphocytes ([1]; peptide 50 μM): 20%

Acp17(1-11)am: p17(1-11)am which further has position 1 (lysine) acetylated, SEQ ID NO: 5 (Ac-KRIWFIPRSSW-NH2)
dose dependence of inhibition of regulatory T lymphocyte action [1]: dose-dependent
inhibition of the suppressant effect of regulatory T lymphocytes ([1]; peptide 25 μM): 148%
inhibition of the suppressant effect of regulatory T lymphocytes ([1]; peptide 50 μM): totally inhibiting

KRIWFIPRSSWYERA [p17]
cytotoxic activity of NK cells against tumour lines [2]: improves the cytotoxic activity; also recorded: increases the cytotoxicity

p17(1-11)am: amino acids 1 to 11 of peptide p17, position 11 (tryptophan) amidated, SEQ ID NO: 4 (KRIWFIPRSSW-NH2)
dose dependence of inhibition of regulatory T lymphocyte action [1]: dose-dependent
inhibition of the suppressant effect of regulatory T lymphocytes ([1]; peptide 50 μM): 128%
inhibition of the suppressant effect of regulatory T lymphocytes ([1]; peptide 50 μM, listed as P17(1-1)am): totally inhibiting
tumour growth [3]: delay tumour growth
tumour growth ([3]; listed as p17(1-11)Am): protection against tumour growth
